Holding throughout (assay): NCI-60 cell line screen, 48 h
Assay [1] relates to TK-10 renal.
The test system of assay [2] is HS 578T breast.
Assay [3] concerns HCT-15 colon.
The subject of assay [4] is ACHN renal.
For assay [5], the system named is DU-145 prostate.
Assay [6] has as its system HOP-62 NSCLC.
The test system of assay [7] is A498 renal.
Assay [8] concerns NCI-H460 lung.

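Where inhibition never reached the appropriate level, the endpoint shown equals the highest concentration tested. Otherwise, values were interpolated linearly from a five-concentration, 48-hour dose response in 96-well plates. The concentration for 50% growth inhibition is given as GI50. TGI is the concentration that stops growth completely.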

With `COC(=O)[C@]12CC[C@@H](C)[C@H](C)[C@@H]1C1=CC[C@@H]3[C@@]4(C)C[C@@H](O)[C@H](O)[C@@](C)(CO)[C@@H]4[C@H](O)C[C@@]3(C)[C@]1(C)CC2`, the GI50 in assay [1] is 16.8 µM; in assay [2], 18.5 µM; in assay [3] it was 12.5 µM; in assay [4], 7.8 µM; in assay [5] it was 16.4 µM; in assay [6], 20.3 µM. Besides, the values for the GI50 in assay [7] and in assay [8] were 16.6 µM and 14.8 µM, respectively. The TGI in assay [1] was 31.5 µM; in assay [2] it was 45.8 µM; in assay [3], 28.4 µM; in assay [4], 21.6 µM; in assay [5], 31.8 µM; in assay [6] it was 42.7 µM. Also, the TGI in assay [7] worked out at 30.9 µM; in assay [8], 33.6 µM.
For `O=C1NC(=NCc2ccccc2)S/C1=C\c1ccc2ncccc2c1`, the GI50 in assay [1], in assay [2], in assay [3], in assay [4], in assay [5] and in assay [6] was > 25 µM throughout. The GI50 in assay [7] and in assay [8] was > 25 µM each time. The TGI in assay [1], in assay [2], in assay [3], in assay [4], in assay [5] and in assay [6] was > 25 µM each time. Further, the TGI in assay [7] and in assay [8] was > 25 µM in each case.
As to `COc1c2ccccc2c(OC)c2[nH]c(=O)ccc12`, the GI50 in assay [1] was 51.2 µM; in assay [2], 2.68 µM; in assay [3] it was 1.78 µM; in assay [4], 7.92 µM; in assay [5] it was 1.54 µM; in assay [6], 2.01 µM. In addition, the figures for the GI50 in assay [7] and in assay [8] were 2.04 µM and 1.51 µM, respectively. In addition, the TGI in assay [1] is > 100 µM; in assay [2], 20.7 µM; in assay [3], 4.53 µM; in assay [4], > 100 µM; in assay [5] it was 3.32 µM; in assay [6], 3.72 µM. The TGI stood at 4.75 µM in assay [7] and 4 µM in assay [8].
Turning to `COc1cc(-c2nc3sccn3c2-c2ccnc(NCCNS(=O)(=O)c3ccc(F)cc3)n2)ccc1F`, the GI50 in assay [1] was 6.27 µM; in assay [2] it was 1.88 µM; in assay [3] it was 2.33 µM; in assay [4], 1.53 µM; in assay [5], 2.42 µM; in assay [6], 4.82 µM. Also, the GI50 in assay [7] was 2.4 µM; in assay [8], 2.44 µM. In addition, the TGI in assay [1], in assay [2], in assay [3], in assay [4], in assay [5] and in assay [6] was > 100 µM throughout. The TGI in assay [7] and in assay [8] was > 100 µM throughout.
On to `c1ccc(Nc2ncc(-c3ccccc3)o2)cc1`, for which the GI50 was > 25 µM in assay [1]; 11.5 µM in assay [2]; 24.3 µM in assay [3]; > 25 µM in assay [4]; > 25 µM in assay [5]; > 25 µM in assay [6]. The results for the GI50 in assay [7] and in assay [8] were > 24 µM and 25 µM, respectively. The TGI in assay [1], in assay [2], in assay [3], in assay [4], in assay [5] and in assay [6] was > 25 µM throughout. The TGI in assay [7] and in assay [8] was > 25 µM in each case.
Regarding `NC(=S)N/N=C1\c2cc(Cl)ccc2-c2c1cc(Cl)cc2[N+](=O)[O-]`, the GI50 in assay [1] was 20.5 µM; in assay [2], 18.8 µM; in assay [3], 4.33 µM; in assay [4], 4.81 µM; in assay [5], 10.8 µM; in assay [6], 7.12 µM. Moreover, the GI50 in assay [7] is 1.38 µM; in assay [8], 3.27 µM. Further, the TGI was > 100 µM in assay [1]; > 100 µM in assay [2]; > 100 µM in assay [3]; > 100 µM in assay [4]; > 100 µM in assay [5]; 74.7 µM in assay [6]. Besides, the TGI in assay [7] came out at 8.57 µM; in assay [8], 20.7 µM.
`COC(=O)/C=C/c1cc(OC(C)=O)c2c(c1)[C@@H](C(=O)OC)[C@H](c1ccc(OC(C)=O)c(OC(C)=O)c1)O2`: the GI50 in assay [1] was 2.58 µM; in assay [2], 0.0343 µM; in assay [3], 0.0421 µM; in assay [4], 0.0705 µM; in assay [5] it was 0.0636 µM; in assay [6], 0.0779 µM. Further, the results for the GI50 in assay [7] and in assay [8] were 1.01 µM and 0.299 µM, respectively. Besides, the TGI in assay [1] is > 91.1 µM; in assay [2], 17.7 µM; in assay [3], > 100 µM; in assay [4] it was 52.5 µM; in assay [6], 63.9 µM; in assay [7], 7.97 µM. For the same molecule, in assay [8], the TGI was 15 µM.
Take `COc1cc2c(cc1OC)-c1cc(OC)c(OC)cc1C(CN(C)C)C2` (stereo not drawn): the GI50 was > 10 µM in assay [1]; 7.27 µM in assay [2]; > 10 µM in assay [3]; > 10 µM in assay [4]; > 10 µM in assay [5]; > 10 µM in assay [6]. In addition, the GI50 in assay [7] and in assay [8] was > 10 µM throughout. Moreover, the TGI in assay [1], in assay [2], in assay [3], in assay [4], in assay [5] and in assay [6] was > 10 µM each time. The TGI in assay [7] and in assay [8] was > 10 µM each time.
For `COCCn1cc(-c2nc(-c3cc4cccnc4[nH]3)cs2)c2cc(OC)ccc21`, the GI50 in assay [1] was 1.07 µM; in assay [2], 1.99 µM; in assay [3] it was 2.26 µM; in assay [4], 2.61 µM; in assay [5], 3.96 µM; in assay [6], 2.2 µM. The GI50 is 1.86 µM in assay [7] and 1.1 µM in assay [8]. Moreover, the TGI in assay [1] is 10.7 µM; in assay [2], 6.78 µM; in assay [3] it was 21.5 µM; in assay [4], > 100 µM; in assay [5], 56.1 µM; in assay [6], 9.36 µM. Besides, the TGI amounted to 6.18 µM in assay [7] and 12.9 µM in assay [8].
